{"source": "patent US20030212014A1", "about": "(priority 2000, published 2003)", "key": {"[1]": {"system": "muscle ACC activity and malonyl CoA", "experiment": "ACC activity and malonyl CoA in muscle two hours after AICAR injection", "assay_type": "in vivo, rat", "details": "250 mg/kg"}, "[2]": {"system": "AMP-activated protein kinase (AMPK)", "experiment": "AMP-activated protein kinase activity in HUVEC incubated with AICAR", "assay_type": "cell-based, human", "method": "The enzyme was assayed in a reaction mixture containing either no AMP or 0.2 mM 5′-AMP. The difference in the activity is the AMP-activated kinase activity. […] This indicates the presence of AMPK and AMPKK in HUVEC.\nOne of the major ATP users, the Na^+/K^+pump, was investigated. The activity of this pump was tested by measuring the uptake of radioactive rubidium in the absence and presence of ouabain, an Na^+/K^+pump inhibitor. The difference in uptake, which is referred to as ouabain-sensitive Rb^+uptake, is the Na^+/K^+pump activity. […] When the ouabain sensitive component was calculated, no ,difference was seen between the two incubations, (2.11±0.9 and 3.3±0.9 pmol/min/mg protein), thus leading us to believe that no change in Na^+/K^+pump activity had occurred. […] The AMPK activity remained high with a longer incubation time up to 120 minutes."}, "HUVEC [3]": {"system": "HUVEC", "experiment": "Hyperglycemia-induced apoptosis in HUVEC (TUNEL)", "assay_type": "cell-based, human", "details": "30 mM glucose + 1 mM AICAR", "method": "(A) Typical TUNEL staining (dark brown) with methylene blue counter-staining. TUNEL positive cells show a typical apoptotic configuration with shrinkage and nuclear fragmentation. […] The percentage of TUNEL positive cells was determined in 3 wells of 6 well plates (24 hr) or in eight of 60 mm dishes. Data are means ±SD.*p<0.05; vs 5 mM glucose. † p<0.05; vs 30 mM glucose alone;"}, "[4]": {"system": "acetyl CoA carboxylase (ACC)", "experiment": "Acetyl CoA carboxylase activity in HUVEC incubated with AICAR", "assay_type": "cell-based, human", "details": "2 mM AICAR", "method": "As previously mentioned, AMPK increases fatty acid oxidation in both liver and skeletal muscle by phosphorylation and inhibition of acetyl CoA carboxylase. We wanted to test if this effect of AMPK is also present in endothelial cells. […] A significant decrease was seen within the first 30 minutes of incubation (FIG. 3). ACC activity went down from 163.1±27.0 pmol/min/mg protein at 0 minutes to 61.1±1.1 at 30 minutes (P=0.004), 73.0 ±12.4 at 60 minutes and 51.2±5.0 at 120 minutes (P=0.015). As previously described, ACC activation increases malonyl CoA levels and this in turn inhibits CPT1, the enzyme responsible for the uptake of long chain fatty acyl CoA into the mitochondria where they are oxidized. […] Fatty acid oxidation was measured by the formation of titrated water (^3H2O) in cells incubated with ^3H-palmitate. A significant increase was seen only after a 2-hour incubation (P=0.002). […] (See Table 1A, FIG. 6.) Glucose and fatty acid oxidation, glucose uptake and lactate and pyruvate release were determined in the absence and presence of […] carnitine.\nThe results described in other tissues are seen in the endothelial cells. […] The presence of ACC is shown by the substantial increase in enzyme activity when 10 mM citrate is present vs. 0 mM citrate. Citrate allosterically activates ACC, but not other enzymes, such as propionyl CoA carboxylase and pyruvate carboxylase, which could also use HCO3^−as substrate. Thus, the increase in radioactive HCO3^−use in the presence of citrate is a reflection of ACC activity only. Similar to AMPK, the activity of ACC is lower in endothelial cells than in skeletal muscle and liver."}, "rats": {"system": "rats", "experiment": "Acute effects of AICAR on blood and plasma metabolites and hormones in rats", "assay_type": "in vivo, rat"}, "[5]": {"system": "liver ACC activity and malonyl CoA", "experiment": "ACC activity and malonyl CoA in liver two hours after AICAR injection", "assay_type": "in vivo, rat"}, "HUVEC [6]": {"system": "HUVEC", "experiment": "Serine incorporation into ceramide in HUVEC", "assay_type": "cell-based, human", "details": "30 mM glucose + AICAR, 24 hr", "method": "To assess whether alterations in ceramide contributed to these events, and particularly the decrease in membrane potential, we attempted to measure ceramide content. Ceramide was not detectable in HUVEC incubated with either 5 or 30 mM glucose. […] Consistent with these findings, we found no increase in serine incorporation into ceramide, (presumably a measure of de novo synthesis) in cells incubated for 24 hr in 30 vs 5 mM glucose."}, "HUVEC [7]": {"system": "HUVEC", "experiment": "HUVEC metabolism after 16 hrs incubation with 30 mM glucose", "assay_type": "cell-based, human", "details": "1 mM AICAR in 30 mM glucose", "method": "Incubation of HUVEC with 30 mM glucose for 16 hrs decreased free fatty oxidation by 50% (FIG. 7A) and increased free fatty acid incorporation into diacylglycerol (DAG) (i.e., esterification) by 40% (FIG. 7B). These changes were accompanied by a significant decline in mitochondria membrane potential (FIG. 7C)."}, "juvenile rats": {"system": "juvenile rats", "experiment": "Chronic intermittent AICAR treatment of juvenile rats", "assay_type": "in vivo, rat", "method": "This dose distributed in the extracellular space of the rat (approx. 20 ml/100g b. w.) yields a concentration in the extracellular space of approximately 5 mM.\nReferring to FIG. 19, it can be seen that food intake was diminished by approximately 25% over the first 24 hrs following each injection. The rats appear to compensate by eating more on the following day. […] Cumulative net food intake was diminished only modestly (about 3%) during all long-term studies.\nThese include the GLUT 4 glucose transporter, hexokinase and various mitochondrial enzymes including cytochrome C oxidase and citrate synthase. […] Also we found no increase in muscle glycogen."}, "caspase-3": {"system": "caspase-3", "experiment": "Caspase-3 activity in HUVEC incubated with 30 mM glucose", "assay_type": "cell-based, human", "details": "30 mM glucose + AICAR, 24 hr", "excerpt": "A similar effect was observed when AMPK activity was increased by infecting HUVEC with constitutively active AMPK using an adenoviral vector (FIG. 9C)."}, "[8]": {"details": "250 mg/kg, 3 days/wk over 106 days"}, "[9]": {"details": "12-week study period, not statistically significant"}}}
{"smiles": "NC(=O)c1ncn([C@@H]2O[C@H](CO)[C@@H](O)[C@H]2O)c1N", "note": "[AICAR, 5-aminoimidizole-4-carboxamide riboside]", "values": [{"measurement": "ACC activity in muscle", "setting": "[1]", "value": "did not depress ACC significantly"}, {"measurement": "malonyl CoA levels in muscle", "setting": "[1]", "value": "no effect"}, {"measurement": "AMP-activated kinase activity", "setting": "[2]; 0.2 mM AICAR, 30 minutes, HUVEC", "value": "15.8±0.4", "unit": "pmol/min/mg protein"}, {"measurement": "AMP-activated kinase activity", "setting": "[2]; 0.5 mM AICAR, 30 minutes, HUVEC", "value": "22.5±0.3", "unit": "pmol/min/mg protein"}, {"measurement": "AMP-activated kinase activity", "setting": "[2]; 2 mM AICAR, 30 minutes, HUVEC (concentration series)", "value": "30.9±0.2", "unit": "pmol/min/mg protein"}, {"measurement": "AMP-activated kinase activity", "setting": "[2]; 2 mM AICAR, at 30 minutes (time course)", "value": 30.8, "unit": "pmol/min/mg protein"}, {"measurement": "AMP-activated kinase activity", "setting": "[2]; 2 mM AICAR, at 60 minutes (time course)", "value": 31.5, "unit": "pmol/min/mg protein"}, {"measurement": "AMP-activated kinase activity", "setting": "[2]; 2 mM AICAR, at 120 minutes (time course)", "value": 32.3, "unit": "pmol/min/mg protein"}, {"measurement": "apoptotic rate (TUNEL-positive cells)", "setting": "HUVEC [3]; 24 hours", "value": "no affect"}, {"measurement": "increase in apoptosis caused by hyperglycemia", "setting": "HUVEC [3]; 72 hours", "value": "completely prevented"}, {"measurement": "ACC activity", "setting": "[4]; at 30 minutes", "value": "61.1±1.1", "unit": "pmol/min/mg protein"}, {"measurement": "ACC activity", "setting": "[4]; at 60 minutes", "value": "73.0 ±12.4", "unit": "pmol/min/mg protein"}, {"measurement": "ACC activity", "setting": "[4]; at 120 minutes", "value": "51.2±5.0", "unit": "pmol/min/mg protein"}, {"measurement": "blood glucose levels", "setting": "rats; 250 mg/kg, 2-6 hours following administration", "value": "moderately diminished"}, {"measurement": "blood lactate", "setting": "rats; acute, high doses", "value": "increase"}, {"measurement": "plasma free fatty acid (FFA) levels", "setting": "rats; acute, high doses", "value": "decrease"}, {"measurement": "plasma leptin", "setting": "rats; all doses studied, at 2 hrs", "value": "did not significantly alter"}, {"measurement": "plasma triglycerides", "setting": "rats; all doses studied, at 2 hrs", "value": "did not significantly alter"}, {"measurement": "dose at which maximal effect on liver ACC activity and malonyl CoA was observed", "setting": "[5]", "value": 500, "unit": "mg/kg"}, {"measurement": "ACC activity in liver", "setting": "[5]; 250 mg/kg", "value": "significantly diminished"}, {"measurement": "malonyl CoA concentration in liver", "setting": "[5]; 250 mg/kg", "value": "significantly diminished"}, {"measurement": "serine incorporation into ceramide", "setting": "HUVEC [6]", "value": "9.0±1.2"}, {"measurement": "decline in mitochondria membrane potential caused by 30 mM glucose", "setting": "HUVEC [7]", "value": "prevented all these changes"}, {"measurement": "decrease in free fatty acid oxidation caused by 30 mM glucose", "setting": "HUVEC [7]", "value": "prevented all these changes"}, {"measurement": "increase in free fatty acid incorporation into diacylglycerol caused by 30 mM glucose", "setting": "HUVEC [7]", "value": "prevented all these changes"}, {"measurement": "decrease in food intake over the first 24 hrs following each injection", "setting": "juvenile rats; 250 mg/kg 3 times/week, chow diet", "value": "approximately 25%"}, {"measurement": "hepatic enlargement", "setting": "juvenile rats; 250 mg/kg intermittent regimen", "value": "no hepatic enlargement"}, {"measurement": "hepatocellular damage, morphologically (light microscope)", "setting": "juvenile rats; 250 mg/kg intermittent regimen", "value": "no evidence of hepatocellular damage"}, {"measurement": "decrease in mass of intra-abdominal (retroperitoneal, mesenteric, epididymal) fat depots", "setting": "juvenile rats; 250 mg/kg s.c. M, W, F for 25 days", "value": "20-40%"}, {"measurement": "GLUT 4, UCP3, cytochrome C oxidase (RT-PCR) and citrate synthase activity in muscle", "setting": "juvenile rats; [8]", "value": "no changes"}, {"measurement": "muscle glycogen", "setting": "juvenile rats; [8]", "value": "no increase"}, {"measurement": "weights of the heart, liver or other organs", "setting": "juvenile rats; 250 mg/kg, at 25 days", "value": "no differences"}, {"measurement": "muscle mass", "setting": "juvenile rats; 250 mg/kg, at 106 days", "value": "increase in muscle mass is suggested"}, {"measurement": "decrease in food intake", "setting": "juvenile rats; [9]", "value": "3-4%"}, {"measurement": "weight gain less than control", "setting": "juvenile rats; [9]", "value": 32, "unit": "g"}, {"measurement": "decrease in plasma triglycerides", "setting": "juvenile rats; 25 days treatment, 250 mg/kg", "value": 40, "unit": "%"}, {"measurement": "plasma leptin", "setting": "juvenile rats; 25 days treatment, 24 hrs following the last injection", "value": "significantly diminished"}, {"measurement": "decrease in cumulative net food intake", "setting": "juvenile rats; all long-term studies", "value": "about 3%"}, {"measurement": "glucose and insulin levels during an oral glucose tolerance test", "setting": "juvenile rats; chronic AICAR treatment", "value": "lower"}, {"measurement": "plasma insulin levels", "setting": "juvenile rats; chronic AICAR treatment", "value": "significantly diminished"}, {"measurement": "tolerability / gross toxicity", "setting": "juvenile rats; rat, in vivo, sc, 250 mg/kg", "value": "without evidence of gross toxicity"}, {"measurement": "caspase-3 activity", "setting": "caspase-3", "value": "833±14", "unit": "arbitrary unit"}]}
